Assay results from patent US20240368406A1, “STABLE LIQUID PHANTOM FOR NEAR-INFRARED FLUORESCENCE VERIFICATION” (SURGVISION GMBH, priority 2021, published 2024).

Key:
Type in all cases: physicochemical
[1] = Stability of the phantom solutions at +2-8° C. in the presence of additives (residual absorbance); conditions: +2-8° C.
Protocol: (§1) Stability was measured as reduction in the absorbance at the maximum wavelength of the dye acquired using a UV/VIS spectrophotometer, denoting reduction of the dye monomer content in solution. All the results were then reported as residual percentage vs the baseline (T=0), wherein at time=0 the percentage is 100%. A decrease in absorbance is associated with the reduction of the concentration of the dye in the formulation buffer, indicating low stability and degradation of the main chromophore species.
The effect of the presence of an additive on the stability of the formulations of the invention has been also investigated.
The preparation of the above buffers is described below:
50 mM HEPES (pH 7.4)+0.04% Tween 20: to prepare 100 mL of buffering solution, 1.19 g of HEPES were dissolved in 80 mL of water; 40 μL of Tween 20 were added and the pH was adjusted to 7.4 with 0.1 M HCl. The buffering solution was then brought to 100 mL volume with water and filtered on 0.22 μm membrane in sterile conditions.
50 mM HEPES (PH 7.4)+0.02% Sodium Azide: to prepare 100 mL of buffering solution, 1.19 g of HEPES and 20 mg of Sodium Azide were dissolved in 80 mL of water and the pH was adjusted to 7.4 with 0.1 M HCl. The buffering solution was then brought to 100 mL volume with water and filtered on 0.22 μm membrane in sterile conditions.
10 mM HEPES (PH 7.0)+10% EtOH: to prepare 100 mL of buffering solution, 0.24 g of HEPES were dissolved in 80 mL of water and the pH was adjusted to 7.0 with 0.1 M HCl.
Then, 10 mL of 100% Ethanol were added. The buffering solution was then brought to 100 mL volume with water and filtered on 0.22 μm membrane in sterile conditions.
Analogous solutions were prepared with the same procedure for MOPS, BES and TRICINE buffers.

[2] = Stability of the phantom solutions at +2-8° C. during long-term storage (residual absorbance); conditions: 3 μM dye in HEPES 10 mM, pH 7.0, +2-8° C. protected from light
Protocol: Stability was measured as reduction in the absorbance at the maximum wavelength of the dye acquired using a UV/VIS spectrophotometer, denoting reduction of the dye monomer content in solution. […] A decrease in absorbance is associated with the reduction of the concentration of the dye in the formulation buffer, indicating low stability and degradation of the main chromophore species. The stability of the formulations under long-term storage conditions was also investigated. In particular, samples of 3 μM IRDye […] and 3 μM IRDye 800BK dissolved in HEPES buffer were stored refrigerated at +2-8° C. protected from light exposure for at least 6 months. For the long-term stability study at 2-8° C., samples of.

[3] = Stability of the phantom solutions at +2-8° C. (residual absorbance, UV/VIS)
Protocol: Several stability studies were performed to evaluate the effect of different buffers, additives such as excipients or preservatives, and storage conditions on the dye formulation. In particular the stability of the formulations after storage at +2-8° C. in a refrigerator was firstly investigated.
as §1
In the Tables below the residual absorbance of different dyes, i.e. […] and S0456, in some representative organic buffering solutions is reported after storage of the formulations at +2-8° C.

`CC1(C)C(/C=C/C2=C(Oc3ccc(S(=O)(=O)O)cc3)C(=C/C=C3\N(CCCCS(=O)(=O)[O-])c4ccc(S(=O)(=O)O)cc4C3(C)C)/CCC2)=[N+](CCCCS(=O)(=O)O)c2ccc(S(=O)(=O)O)cc21` [IRDye 800BK] gave a Residual absorbance percentage ([1]; 3 μM dye in BES (10 mM, pH 7.0) +10% EtOH, 1 week) of 99.2%, a Residual absorbance percentage ([1]; 3 μM dye in BES (10 mM, pH 7.0) +10% EtOH, 2 weeks) of 98.2% and a Residual absorbance percentage ([1]; 3 μM dye in BES (10 mM, pH 7.0) +10% EtOH, 4 weeks) of 97.2%. It also gave a Residual absorbance percentage ([1]; 3 μM dye in HEPES (10 mM, pH 7.0) +10% EtOH, 1 week) of 97.8%, a Residual absorbance percentage ([1]; 3 μM dye in HEPES (10 mM, pH 7.0) +10% EtOH, 2 weeks) of 97.2% and a Residual absorbance percentage ([1]; 3 μM dye in HEPES (10 mM, pH 7.0) +10% EtOH, 4 weeks) of 95.1%. For the same compound, the Residual absorbance percentage ([1]; 3 μM dye in MOPS (10 mM, pH 7.0) +10% EtOH, 1 week) was 97.6%, the Residual absorbance percentage ([1]; 3 μM dye in MOPS (10 mM, pH 7.0) +10% EtOH, 2 weeks) was 95.8% and the Residual absorbance percentage ([1]; 3 μM dye in MOPS (10 mM, pH 7.0) +10% EtOH, 4 weeks) was 92.9%. The Residual absorbance percentage ([2]; 1 month) was 99.1%, the Residual absorbance percentage ([2]; 3 months) was 94.1% and the Residual absorbance percentage ([2]; 6 months) was 93.3%. It also gave a Residual absorbance percentage ([3]; 3 μM dye in BES buffer 10 mM, pH 7.0, +2-8° C., 1 week) of 97.6%, a Residual absorbance percentage ([3]; 3 μM dye in BES buffer 10 mM, pH 7.0, +2-8° C., 2 weeks) of 94.8% and a Residual absorbance percentage ([3]; 3 μM dye in BES buffer 10 mM, pH 7.0, +2-8° C., 4 weeks) of 92.0%. For the same compound, the Residual absorbance percentage ([3]; 3 μM dye in BES buffer 10 mM, pH 7.4, +2-8° C., 1 week) was 97.6%, the Residual absorbance percentage ([3]; 3 μM dye in BES buffer 10 mM, pH 7.4, +2-8° C., 2 weeks) was 94.4% and the Residual absorbance percentage ([3]; 3 μM dye in BES buffer 10 mM, pH 7.4, +2-8° C., 4 weeks) was 91.5%. It also gave a Residual absorbance percentage ([3]; 3 μM dye in BES buffer 10 mM, pH 7.8, +2-8° C., 1 week) of 96.4%, a Residual absorbance percentage ([3]; 3 μM dye in BES buffer 10 mM, pH 7.8, +2-8° C., 2 weeks) of 92.4% and a Residual absorbance percentage ([3]; 3 μM dye in BES buffer 10 mM, pH 7.8, +2-8° C., 4 weeks) of 88.1%. For the same compound, the Residual absorbance percentage ([3]; 3 μM dye in BES buffer 50 mM, pH 7.0, +2-8° C., 1 week) was 96.8%, the Residual absorbance percentage ([3]; 3 μM dye in BES buffer 50 mM, pH 7.0, +2-8° C., 2 weeks) was 93.5% and the Residual absorbance percentage ([3]; 3 μM dye in BES buffer 50 mM, pH 7.0, +2-8° C., 4 weeks) was 90.0%. For the same compound, the Residual absorbance percentage ([3]; 3 μM dye in BES buffer 50 mM, pH 7.4, +2-8° C., 1 week) was 97.2%, the Residual absorbance percentage ([3]; 3 μM dye in BES buffer 50 mM, pH 7.4, +2-8° C., 2 weeks) was 94.0% and the Residual absorbance percentage ([3]; 3 μM dye in BES buffer 50 mM, pH 7.4, +2-8° C., 4 weeks) was 90.5%. The Residual absorbance percentage ([3]; 3 μM dye in BES buffer 50 mM, pH 7.8, +2-8° C., 1 week) was 95.9%, the Residual absorbance percentage ([3]; 3 μM dye in BES buffer 50 mM, pH 7.8, +2-8° C., 2 weeks) was 91.7% and the Residual absorbance percentage ([3]; 3 μM dye in BES buffer 50 mM, pH 7.8, +2-8° C., 4 weeks) was 89.6%. The Residual absorbance percentage ([3]; 3 μM dye in MOPS buffer 10 mM, pH 7.0, +2-8° C., 1 week) was 97.9%, the Residual absorbance percentage ([3]; 3 μM dye in MOPS buffer 10 mM, pH 7.0, +2-8° C., 2 weeks) was 95.7% and the Residual absorbance percentage ([3]; 3 μM dye in MOPS buffer 10 mM, pH 7.0, +2-8° C., 4 weeks) was 93.7%. The Residual absorbance percentage ([3]; 3 μM dye in MOPS buffer 10 mM, pH 7.4, +2-8° C., 1 week) was 97.9%, the Residual absorbance percentage ([3]; 3 μM dye in MOPS buffer 10 mM, pH 7.4, +2-8° C., 2 weeks) was 95.3% and the Residual absorbance percentage ([3]; 3 μM dye in MOPS buffer 10 mM, pH 7.4, +2-8° C., 4 weeks) was 93.6%. For the same compound, the Residual absorbance percentage ([3]; 3 μM dye in MOPS buffer 10 mM, pH 7.8, +2-8° C., 1 week) was 96.9%, the Residual absorbance percentage ([3]; 3 μM dye in MOPS buffer 10 mM, pH 7.8, +2-8° C., 2 weeks) was 94.1% and the Residual absorbance percentage ([3]; 3 μM dye in MOPS buffer 10 mM, pH 7.8, +2-8° C., 4 weeks) was 91.1%. The Residual absorbance percentage ([3]; 3 μM dye in MOPS buffer 50 mM, pH 7.0, +2-8° C., 1 week) was 97.4%, the Residual absorbance percentage ([3]; 3 μM dye in MOPS buffer 50 mM, pH 7.0, +2-8° C., 2 weeks) was 94.6% and the Residual absorbance percentage ([3]; 3 μM dye in MOPS buffer 50 mM, pH 7.0, +2-8° C., 4 weeks) was 92.0%. For the same compound, the Residual absorbance percentage ([3]; 3 μM dye in MOPS buffer 50 mM, pH 7.4, +2-8° C., 1 week) was 97.5%, the Residual absorbance percentage ([3]; 3 μM dye in MOPS buffer 50 mM, pH 7.4, +2-8° C., 2 weeks) was 94.9% and the Residual absorbance percentage ([3]; 3 μM dye in MOPS buffer 50 mM, pH 7.4, +2-8° C., 4 weeks) was 92.6%. The Residual absorbance percentage ([3]; 3 μM dye in MOPS buffer 50 mM, pH 7.8, +2-8° C., 1 week) was 97.0%, the Residual absorbance percentage ([3]; 3 μM dye in MOPS buffer 50 mM, pH 7.8, +2-8° C., 2 weeks) was 94.0% and the Residual absorbance percentage ([3]; 3 μM dye in MOPS buffer 50 mM, pH 7.8, +2-8° C., 4 weeks) was 91.3%.
